# Assay results published in patent publication US20240050950A1, “GRADIENT-BASED MICROFLUIDIC CIRCUIT, DEVICE, AND METHOD FOR PERFORMING AN ASSAY” (priority 2020, published 2024).
# Tests used:
# [1] = system: yrKHK strain; conditions: reported elsewhere; cited from earlier work
# [2] = system: wild-type S. cerevisiae strain (DBY12000); assay: Sugar test in MVM2 platform, 10 h yeast culture; format: cell-based, Saccharomyces cerevisiae; conditions: 0.007-7%
# Description: Yeast culture medium, strains, and growth. Yeast cell growth and standard laboratory manipulations were performed as described (Guthrie and Fink, “Guide to Yeast Genetics and Molecular and Cellular Biology,” Methods in Enzymol. Part C 351 Gulf Professional Publishing (2002), which is hereby incorporated by reference in its entirety). All media used was either minimal medium (YNB; 0.67% yeast nitrogen base without amino acids plus 2% indicated carbon sources) or rich medium (YP; 2% bacto peptone, 1% yeast extract, 2% indicated carbon sources). Additionally, for fluorescence microscopy, low-fluorescence medium was used (standard minimal medium with 2% glucose, except YNB is prepared without riboflavin or folic acid to reduce background fluorescence) (Sheff and Thorn, “Optimized Cassettes for Fluorescent Protein Tagging in Saccharomyces cerevisiae,” Yeast 21:661-670 (2004), which is hereby incorporated by reference in its entirety). The yeast strains used in this study were DBY12000 and DBY12549. DBY12000 is a wild-type yeast strain (i.e., WT) with a genotype of MATa prototrophic HAP1^+ derivative of FY4. […]
# Wild-type vs. Glucose (outcome: not sensitive): In FIGS. 37A-D and FIG. 38, the WT yeast strain exposed with glucose and fructose, respectively. The yeast growth was monitored for any “yeast/sugar” pair within 10 h culture at two time points (t=0 and 10 h). […]
# [3] = system: yrKHK S. cerevisiae yeast strain (DBY12549); format: cell-based, Saccharomyces cerevisiae; conditions: MVM2 platform
# Description: Yeast culture medium, strains, and growth. Yeast cell growth and standard laboratory manipulations were performed as described (Guthrie and Fink, “Guide to Yeast Genetics and Molecular and Cellular Biology,” Methods in Enzymol. Part C 351 Gulf Professional Publishing (2002), which is hereby incorporated by reference in its entirety). All media used was either minimal medium (YNB; 0.67% yeast nitrogen base without amino acids plus 2% indicated carbon sources) or rich medium (YP; 2% bacto peptone, 1% yeast extract, 2% indicated carbon sources). Additionally, for fluorescence microscopy, low-fluorescence medium was used (standard minimal medium with 2% glucose, except YNB is prepared without riboflavin or folic acid to reduce background fluorescence) (Sheff and Thorn, “Optimized Cassettes for Fluorescent Protein Tagging in Saccharomyces cerevisiae,” Yeast 21:661-670 (2004), which is hereby incorporated by reference in its entirety). The yeast strains used in this study were DBY12000 and DBY12549. DBY12000 is a wild-type yeast strain (i.e., WT) with a genotype of MATa prototrophic HAP1^+ derivative of FY4. DBY12549 or yrKHK is the mutant of the wild-type yeast strain, which is sensitive to fructose and has a genotype of MATa HAP1^+ can1Δ::TDH3pr-yrKHK.
# Then, as an example, the platform was used to study recessive human metabolic diseases, specifically measuring sugar-phosphate toxicity. […]. The data obtained using the MVM^2 platform precisely pinpointed the binary ‘Yes/No’ sensitivity response of the yrKHK strain to fructose (Yes) and glucose (No), as shown in FIGS. 35A-C and FIGS. 36A-C, respectively.
# In this case, the functionality and validity of the MVM^2 platform was used to test for these known “eukaryote cells/sugars” pairs. Consequently, sugars (fructose and glucose) were chosen as the small molecules to show the feasibility of testing small molecules on eukaryotic cells in the MVM^2 platform. A wild-type S. cerevisiae, DBY12000, yeast strain (namely, WT) and its genetically modified DBY12549 mutant (called yrKHK) were chosen.. […]
# [4] = Table 3, antifungal drugs and other molecules; cited from earlier work
# [5] = system: WT strain; conditions: reported elsewhere; cited from earlier work
smiles,measurement,setting,value
O=C(CO)[C@@H](O)[C@H](O)[C@H](O)CO [D-fructose],sensitivity/resistance,[1],sensitive
same,outcome (sensitivity),[2],not sensitive
same,binary Yes/No sensitivity response,[3]; 0.007-7 wt %,Yes
same,critical sensitivity concentration,[3]; 10 h,1.13 wt %
same,concentration range within which yeast growth is stopped,"[3]; microchambers R8-R12, 10 h",0.7-1.113 wt %
same,Molar volume,[4],113.3 cm^3
same,sensitivity/resistance,[5],resistant
